Values of other authors in PMC12281572.
Several values for one entry are separate records, joined by “and”; a condition that tells them apart may be missing. Identical values can stand only once.

Test: FTIR, 4-fluorophenol as donor (the pK_BHX database, per the paper)
Conditions: CCl4; 25 C

| Structure (SMILES) | pK_BHX (log10 Kf of the 1:1 H-bond complex with 4-fluorophenol, by FTIR) |
| --- | --- |
| O=c1ccocc1 | 2.03 log units |
| CN(C)c1ccc(Br)cc1 | 0.17 log units |
| CC(=Nc1ccc(Br)cc1)Nc1ccccc1 | 1.36 log units |
| c1ccnnc1 | 1.65 log units |
| N#Cc1ccccc1Br | 0.71 log units |
| Cc1ccc(NC(=Nc2ccccc2)c2ccccc2)cc1 | 1.47 log units |
| FC1C2CC3CC(C2)CC1C3 (centres unmarked) | -0.02 log units |
| COc1cccc(C)c1 | 0.05 log units |
| CC(=O)c1ccccc1 | 1.11 log units |
| OCCc1ccccc1 | 0.97 log units |
| CN1CCCC1=O | 2.38 log units |
| ClCCCCCl | -0.47 log units |
| COc1ccc(N(C)C(=Nc2ccc(C)cc2)c2ccccc2)cc1 | 1.63 log units |
| Brc1cccnc1 | 1.31 log units |
| CN(C)S(C)(=O)=O | 1.0 log units |
| CCCCNC | 2.24 log units |
| CCOC(=O)c1ccc(Br)cc1 | 0.78 log units |
| CN(C)C(=O)c1ccc(F)cc1 | 2.14 log units |
| CSC | 0.12 log units |
| CNC(=Nc1ccccc1)c1ccccc1 | 1.83 log units |
| c1ccc2scnc2c1 | 1.29 log units |
| Cc1cccc(N(C)C)c1 | 0.41 log units |
| CC(C)I | -0.37 log units |
| CCCCCF | -0.06 log units |
| O=Cc1ccc(Cl)cc1 | 0.63 log units |

| Structure (SMILES) | pK_BHX (log10 Kf of the 1:1 H-bond complex with 4-fluorophenol, by FTIR) |
| --- | --- |
| CCOC(=O)C(C)(C)C | 1.04 log units |
| CCN(CC)C(=O)C(C)(C)C | 2.13 log units |
| C=COCC | 0.1 log units |
| c1ccc2nc3ccccc3nc2c1 | 1.22 log units |
| CN=C(c1ccc(C)cc1)N(C)C | 2.72 log units |
| CCNC(C)=O | 2.29 log units |
| C#Cc1ccccc1 | -0.44 log units and -0.6 log units |
| C1OCOCO1 | 0.02 log units |
| C1=COCCC1 | 0.41 log units |
| C#CCN | 1.56 log units |
| NCc1cc(Cl)cc(Cl)c1 | 1.27 log units |
| CN(C)Cc1cccc(F)c1 | 1.27 log units |
| Cn1cncc1Br | 2.22 log units |
| C1CCSCC1 | 0.23 log units |
| CCN(C)C | 2.17 log units |
| COc1ccccc1C=O | 1.11 log units |
| O=C1CCCC1 | 1.27 log units |
| CN(N)c1ccncc1 | 2.58 log units |
| CC(=Nc1ccccc1)N(C)c1cccc(Cl)c1 | 1.44 log units |
| CCCCN1CCCC1 | 2.04 log units |
| CNc1ccc(Cl)cc1 | 0.05 log units |
| O=c1c2ccccc2oc2ccccc12 | 1.36 log units |
| c1ccc(-c2ccccn2)nc1 | 1.15 log units |
| c1ccc(-c2nc3ccccc3o2)cc1 | 1.18 log units |
| COCOC | 0.58 log units |

| Structure (SMILES) | pK_BHX (log10 Kf of the 1:1 H-bond complex with 4-fluorophenol, by FTIR) |
| --- | --- |
| NCC(F)(F)F | 0.71 log units |
| Oc1cccc(C(F)(F)F)c1 | -0.36 log units |
| COc1ccc(N(C)C(=Nc2ccc(Br)cc2)c2ccccc2)cc1 | 1.23 log units |
| CCOCCOCC | 1.09 log units |
| O=C1CCCCCCCCCCC1 | 1.23 log units |
| FC12CC3CC(CC(C3)C1)C2 | 0.31 log units |
| CC12CCC(CC1=S)C2(C)C (centres unmarked) | 0.34 log units |
| CN1C(=O)CCC1=O | 1.06 log units |
| CN(C)C | 2.13 log units |
| CCNC | 2.25 log units |
| CCOC(C)(C)C | 1.08 log units |
| CC12CCC(CC1=O)C2(C)C (centres unmarked) | 1.31 log units |
| Fc1cccc(F)n1 | 0.14 log units |
| CSC1CCCCC1 | 0.24 log units |
| Brc1ccccc1 | -0.66 log units and -0.92 log units |
| O=S(Cc1ccccc1)Cc1ccccc1 | 2.43 log units |
| O=S1OCCO1 | 0.87 log units |
| c1cnccn1 | 0.92 log units |
| CN(C)C(=O)N(c1ccccc1)c1ccccc1 | 2.08 log units |
| CC(C)(C)OC(C)(C)C | 0.75 log units |
| Cn1cccn1 | 1.84 log units |
| CCOC(=O)N(CC)CC | 1.95 log units |
| O=C1CCCCCCCCCCCCCC1 | 1.22 log units |
| CN1CCCCC1 | 2.11 log units |
